Assay [1] concerns human breast cancer cell line MCF-7. The experiment in a line: Oncotest propidium iodide monolayer cell proliferation assay, MCF-7. It counts as cell-based. As to conditions: mean absolute IC50, 96 h treatment, propidium iodide endpoint, triplicate, read-out: MCF-7 IC50. How it is done: (§1) The anticancer activity of compounds (8a-q) was evaluated using the Oncotest monolayer assay in the human prostate cancer cell line 22Rv1 and the human breast cancer cell line MCF-7, as an outsourced service. […] Antitumour activity was assessed after four days of treatment with the compounds using a propidium iodide based monolayer assay. Potency is expressed as absolute IC50 values, calculated by non-linear regression analysis following testing in triplicate. The seventeen inhibitors were tested at 10 concentrations in half-log increments up to 100 μM in triplicate.
(§2) A modified propidium iodide (PI) based monolayer assay was used to assess the anti-cancer activity of the compounds. Briefly, cells were harvested from exponential phase cultures, counted and plated in 96-well flat-bottom microtiter plates at a cell density of 8.000–12.000 cells/well. After a 24 h recovery period to allow the cells to resume exponential growth, 10 μl of culture medium (six control wells/plate) or culture medium with test compound were added. The compounds were applied in half-log increments at 10 concentrations in triplicate. After a total treatment period of 96 h, cells were washed with 200 μl PBS to remove dead cells and debris. Then, 200 μl of a solution containing 7 μg/mL propidium iodide (PI) was added. After an incubation period of 1–2 h at room temperature, fluorescence (FU) was measured using the EnSpire Multimode Plate Reader (excitation λ = 530 nm, emission λ = 620 nm) to quantify the amount of attached viable cells. IC50 values were calculated by 4-parameter non-linear curve fit using Oncotest Warehouse Software. For calculation of mean IC50 values the geometric mean was used.

Assay [2] has as its system human prostate cancer cell line 22Rv1. The experiment in a line: Oncotest propidium iodide monolayer cell proliferation assay, 22Rv1. It counts as cell-based. As to conditions: mean absolute IC50, 96 h treatment, propidium iodide endpoint, triplicate. How it is done: as §1, §2
The test system of a further assay is MCF-7 and 22Rv1. In words: Oncotest monolayer assay, results stated over both cell lines. It is filed as cell-based, human. The note with it: for IC50: Homo sapiens, geometric mean over MCF-7 and 22Rv1, read-out: Mean IC50 values; for antiproliferative activity (in words): MCF-7 and 22Rv1. Here is the method:
as §1, §2

“Also recorded” adds a separate entry of the source. Like-named read-outs stand apart in the source and are kept apart here.

The term IC50 denotes the concentration at which inhibition is half-maximal. Regarding `COc1cc(OC(F)(F)F)ccc1[C@@H]1c2c(c3cccnc3c3ncccc23)N[C@@]2(O)COC(=O)[C@@H]12` (mixture of isomers) [Compound 8o, (9aS, 12aS, 13S) and (9aR, 12aR, 13R) 9a-hydroxy-13-(2-methoxy-4-(trifluoromethoxy)phenyl)-9a,10,12a,13-tetrahydrofuro[3,4-b]pyrido[3,2-f][1,10]phenanthrolin-12(9H)-one], the IC50 in assay [1] (Homo sapiens, MCF7, 96 h) was 396 nM; in assay [2] (Homo sapiens, 22Rv1, 96 h), 322 nM; in the assay with MCF-7 and 22Rv1 it was under 500 nM. In addition, the “antiproliferative activity (in words)” value with MCF-7 and 22Rv1 was “more active than etoposide in both cell lines”.
With `O=C1OC[C@]2(O)Nc3c(c4cccnc4c4ncccc34)[C@@H](c3cccc(OC(F)(F)F)c3)[C@@H]12` (mixture of isomers) [Compound 8c, (9aS, 12aR, 13R) and (9aR, 12aS, 13S) 9a-hydroxy-13-(3-(trifluoromethoxy)phenyl)-9a,10,12a,13-tetrahydrofuro[3,4-b]pyrido[3,2-f][1,10]phenanthrolin-12(9H)-one], the IC50 in assay [1] (Homo sapiens, MCF7, 96 h) was 466 nM; in assay [2] (Homo sapiens, 22Rv1, 96 h), 257 nM.
Turning to `O=C1OC[C@]2(O)Nc3c(c4cccnc4c4ncccc34)[C@@H](c3ccc(SC(F)(F)F)cc3)[C@@H]12` (mixture of isomers) [Compound 8i, (9aS, 12aR, 13R) and (9aR, 12aS, 13S) 9a-hydroxy-13-(4-((trifluoromethyl)thio)phenyl)-9a,10,12a,13-tetrahydrofuro[3,4-b]pyrido [3,2-f][1,10]phenanthrolin-12(9H)-one], the IC50 in assay [1] (Homo sapiens, MCF7, 96 h) was 2300 nM; in assay [2] (Homo sapiens, 22Rv1, 96 h) it was 894 nM; in the assay with MCF-7 and 22Rv1, under 10000 nM.
In the case of `O=C1OC[C@]2(O)Nc3c(c4cccnc4c4ncccc34)[C@@H](c3ccc(OC(F)(F)F)cc3)[C@@H]12` (mixture of isomers) [Compound 8d, (9aS, 12aR, 13R) and (9aR, 12aS, 13S) 9a-hydroxy-13-(4-(trifluoromethoxy)phenyl)-9a,10,12a,13-tetrahydrofuro[3,4-b]pyrido[3,2-f][1,10]phenanthrolin-12(9H)-one], the IC50 in assay [1] (Homo sapiens, MCF7, 96 h) came to 424 nM; in assay [2] (Homo sapiens, 22Rv1, 96 h) it was 239 nM.
Take `O=C1OC[C@]2(O)Nc3c(c4cccnc4c4ncccc34)[C@@H](c3cccc(C(F)(F)F)c3)[C@@H]12` (mixture of isomers) [Compound 8f, (9aS, 12aR, 13R) and (9aR, 12aS, 13S) 9a-hydroxy-13-(3-(trifluoromethyl)phenyl)-9a,10,12a,13-tetrahydrofuro[3,4-b]pyrido[3,2-f][1,10]phenanthrolin-12(9H)-one]: the IC50 in assay [1] (Homo sapiens, MCF7, 96 h) was 825 nM; in assay [2] (Homo sapiens, 22Rv1, 96 h), 510 nM; in the assay on MCF-7 and 22Rv1 it was 500 to 1000 nM.
Regarding `CCOc1ccc([C@@H]2c3c(c4cccnc4c4ncccc34)N[C@@]3(O)COC(=O)[C@H]23)cc1C(F)(F)F` (mixture of isomers) [Compound 8k, (9aS, 12aR, 13R) and (9aR, 12aS, 13S) 13-(4-ethoxy-3-(trifluoromethyl)phenyl)-9a-hydroxy-9a,10,12a,13-tetrahydrofuro[3,4-b]pyrido[3,2-f][1,10] phenanthrolin-12(9H)-one], the IC50 in assay [1] (Homo sapiens, MCF7, 96 h) was 355 nM; in assay [2] (Homo sapiens, 22Rv1, 96 h), 295 nM; in the assay with MCF-7 and 22Rv1, under 500 nM. In addition, the “antiproliferative activity (in words)” value with MCF-7 and 22Rv1 is on record as “more active than etoposide in both cell lines”.
The like results for `O=C1OC[C@]2(O)Nc3c(c4cccnc4c4ncccc34)[C@@H](c3ccc4c(c3)OC(F)(F)O4)[C@@H]12` (mixture of isomers) [Compound 8q, (9aS, 12aR, 13R) and (9aR, 12aS, 13S) 13-((3,4-difluoromethylenedioxy)phenyl)-9a-hydroxy-9a,10,12a,13-tetrahydrofuro[3,4-b]pyrido[3,2-f][1,10]phenanthrolin-12(9H)-one] were, in that order, 910 nM, 520 nM, 500 to 1000 nM and “submicromolar activity”.
Turning to `O=C1OC[C@]2(O)Nc3c(c4cccnc4c4ncccc34)[C@@H](c3ccc(OC(F)F)cc3)[C@@H]12` (mixture of isomers) [Compound 8l, (9aS, 12aR, 13R) and (9aR, 12aS, 13S) 13-(4-(difluoromethoxy)phenyl)-9a-hydroxy-9a,10,12a,13-tetrahydrofuro[3,4-b]pyrido[3,2-f][1,10]phenanthrolin-12(9H)-one], the IC50 in assay [1] (Homo sapiens, MCF7, 96 h) was 901 nM; in assay [2] (Homo sapiens, 22Rv1, 96 h) it was 719 nM; with MCF-7 and 22Rv1, 500 to 1000 nM.
For the molecule `O=C1OC[C@]2(O)Nc3c(c4cccnc4c4ncccc34)[C@@H](c3cccc(S(F)(F)(F)(F)F)c3)[C@@H]12` (mixture of isomers) [Compound 8g, (9aS, 12aR, 13R) and (9aR, 12aS, 13S) 9a-hydroxy-13-(3-(pentafluorosulfanyl)phenyl)-9a,10,12a,13-tetrahydrofuro[3,4-b]pyrido[3,2-f][1,10]phenanthrolin-12(9H)-one], the IC50 in assay [1] (Homo sapiens, MCF7, 96 h) was 589 nM; in assay [2] (Homo sapiens, 22Rv1, 96 h) it was 311 nM; in the assay with MCF-7 and 22Rv1, under 500 nM. Also, the “antiproliferative activity (in words)” value in the assay with MCF-7 and 22Rv1 is listed as “more active than etoposide in both cell lines; also recorded: submicromolar activity”.
For the molecule `COc1cc([C@@H]2c3c(c4cccnc4c4ncccc34)N[C@@]3(O)COC(=O)[C@H]23)cc2c1OCO2` (mixture of isomers) [Compound 8p, (9aS, 12aR, 13R) and (9aR, 12aS, 13S) 9a-hydroxy-13-((5-methoxy-3,4-methylenedioxy)phenyl)-9a,10,12a,13-tetrahydrofuro[3,4-b]pyrido[3,2-f][1,10]phenanthrolin-12(9H)-one], the IC50 in assay [1] (Homo sapiens, MCF7, 96 h) is 7300 nM; in assay [1], 7250 nM; in assay [2] (Homo sapiens, 22Rv1, 96 h), 4000 nM; in assay [2], 4000 nM; with MCF-7 and 22Rv1, under 10000 nM.
For the molecule `CSc1ccc([C@@H]2c3c(c4cccnc4c4ncccc34)N[C@@]3(O)COC(=O)[C@H]23)cc1` (mixture of isomers) [Compound 8a, (9aS, 12aR, 13R) and (9aR, 12aS, 13S) 9a-hydroxy-13-(4-(methylthio)phenyl)-9a,10,12a,13-tetrahydrofuro[3,4-b]pyrido[3,2-f][1,10]phenanthrolin-12(9H)-one], the IC50 in assay [1] (Homo sapiens, MCF7, 96 h) was 648 nM; in assay [2] (Homo sapiens, 22Rv1, 96 h), 855 nM; in the assay with MCF-7 and 22Rv1, 500 to 1000 nM.
Regarding `Cc1cc(OC(F)(F)F)cc([C@@H]2c3c(c4cccnc4c4ncccc34)N[C@@]3(O)COC(=O)[C@H]23)c1` (mixture of isomers) [Compound 8h, (9aS, 12aR, 13R) and (9aR, 12aS, 13S) 9a-hydroxy-13-(3-methyl-5-trifluoromethoxyphenyl)-9a,10,12a,13-tetrahydrofuro[3,4-b]pyrido[3,2-f][1,10] phenanthrolin-12(9H)-one], the IC50 in assay [1] (Homo sapiens, MCF7, 96 h) was 475 nM; in assay [2] (Homo sapiens, 22Rv1, 96 h) it was 242 nM; in the assay on MCF-7 and 22Rv1, under 500 nM. The “antiproliferative activity (in words)” value in the assay on MCF-7 and 22Rv1 was “more active than etoposide in both cell lines”.
For the molecule `Cc1ccc(OC(F)(F)F)cc1[C@@H]1c2c(c3cccnc3c3ncccc23)N[C@@]2(O)COC(=O)[C@H]12` (mixture of isomers) [Compound 8m, (9aS, 12aR, 13R) and (9aR, 12aS, 13S) 9a-hydroxy-13-(2-methyl-5-(trifluoromethoxy)phenyl)-9a,10,12a,13-tetrahydrofuro[3,4-b]pyrido[3,2-f][1,10]phenanthrolin-12(9H)-one], the half-inhibitory concentration (IC50) in assay [1] (Homo sapiens, MCF7, 96 h) was 3310 nM; in assay [2] (Homo sapiens, 22Rv1, 96 h), 2840 nM; in the assay on MCF-7 and 22Rv1, under 10000 nM.

The values are drawn from article PMC4762250, “Novel cis-selective and non-epimerisable C3 hydroxy azapodophyllotoxins targeting microtubules in cancer cells” (European Journal of Medicinal Chemistry, 2016).
